In PMC9967564, “Identification of Bioactive Peptides from a Laminaria digitata Protein Hydrolysate Using In Silico and In Vitro Methods to Identify Angiotensin-1-Converting Enzyme (ACE-1) Inhibitory Peptides” (Marine Drugs, 2023):

What was measured:
[1] = test system: ACE-II; parameters: method as in PMID 24131339; settings: negative control in studies on marine cryptides; ref [49]; read-out: IC50 for ACE-II inhibition; cited from earlier work
[2] = target: T1, ACE-1 (Homo sapiens, UniProt P12821); format: biochemical
T1 construct: purchased Cambridge BioSciences (Cambridge, UK)
T1 sequence (P12821 30-1306): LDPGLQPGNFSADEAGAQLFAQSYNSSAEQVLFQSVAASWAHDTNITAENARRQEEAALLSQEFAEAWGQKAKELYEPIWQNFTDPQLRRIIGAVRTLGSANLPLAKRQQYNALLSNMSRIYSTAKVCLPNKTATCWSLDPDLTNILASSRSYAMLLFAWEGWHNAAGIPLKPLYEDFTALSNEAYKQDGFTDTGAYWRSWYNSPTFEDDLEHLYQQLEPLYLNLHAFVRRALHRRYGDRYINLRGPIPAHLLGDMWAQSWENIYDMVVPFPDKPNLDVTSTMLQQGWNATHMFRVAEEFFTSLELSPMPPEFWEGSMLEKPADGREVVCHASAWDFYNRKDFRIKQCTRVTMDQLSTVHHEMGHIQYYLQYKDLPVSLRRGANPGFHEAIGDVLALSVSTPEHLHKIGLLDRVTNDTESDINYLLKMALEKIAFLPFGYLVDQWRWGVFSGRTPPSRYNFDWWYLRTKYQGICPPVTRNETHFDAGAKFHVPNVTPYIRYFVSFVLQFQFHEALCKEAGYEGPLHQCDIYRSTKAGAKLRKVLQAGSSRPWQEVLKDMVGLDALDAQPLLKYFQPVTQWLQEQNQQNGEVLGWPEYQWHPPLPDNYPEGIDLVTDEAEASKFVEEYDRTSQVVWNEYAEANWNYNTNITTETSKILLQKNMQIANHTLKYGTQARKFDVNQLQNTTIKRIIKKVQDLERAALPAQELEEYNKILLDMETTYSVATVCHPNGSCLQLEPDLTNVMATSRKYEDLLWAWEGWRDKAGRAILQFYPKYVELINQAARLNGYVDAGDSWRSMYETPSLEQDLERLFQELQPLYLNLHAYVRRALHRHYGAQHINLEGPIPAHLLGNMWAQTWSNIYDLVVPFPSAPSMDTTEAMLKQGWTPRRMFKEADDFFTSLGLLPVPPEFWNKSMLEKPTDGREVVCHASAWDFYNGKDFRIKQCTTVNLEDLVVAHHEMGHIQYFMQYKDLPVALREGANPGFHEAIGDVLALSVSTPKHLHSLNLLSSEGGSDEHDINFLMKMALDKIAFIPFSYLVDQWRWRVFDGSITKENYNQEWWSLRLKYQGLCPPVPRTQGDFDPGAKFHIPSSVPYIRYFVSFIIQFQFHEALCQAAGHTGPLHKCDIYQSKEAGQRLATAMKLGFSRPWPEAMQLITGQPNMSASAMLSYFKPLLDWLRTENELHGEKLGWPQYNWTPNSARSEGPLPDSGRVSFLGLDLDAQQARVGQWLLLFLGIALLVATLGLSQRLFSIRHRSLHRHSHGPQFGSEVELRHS

Compound	IC50 [1]	ACE-1 inhibition [2]
CCCCc1nc(Cl)c(CO)n1Cc1ccc(-c2ccccc2-c2nn[nH]n2)cc1 [Losartan]	17.1 to 146 µM	
YIHNNPAKGGLF		91%
